Laboratory results: patent US20050148518A1, “Anti-bacterial compositions” (Rowett Research Institute, priority 2002, published 2005)

Key:
[1] = tested on: methicillin-resistant Staphylococcus aureus (MRSA) strain NCTC 10442; test: Viability (killing) of MRSA treated with L-lactate and Coumarin; type: cell-based
[2] = tested on: E. coli O157:H7 strain NCTC 12900; test: Growth inhibition monitored by spectrophotometer (650 nm); type: cell-based, Escherichia coli O157:H7; details: 37° C.; for growth compared to the control (FIG. 13B): 0.625 mM Coumarin, 18 mM L-lactate; for growth compared to the control (FIG. 13A): 12.5 mM L-lactate, 1.25 mM esculetin
[3] = tested on: Listeria monocytogenes NCTC 11994; test: Viability (killing) of L. monocytogenes treated with L-lactate and Coumarin; type: cell-based
[4] = tested on: S. aureus; test: Growth inhibition monitored by spectrophotometer (650 nm); type: cell-based, Staphylococcus aureus; details: Coumarin 1.25 mM, L-lactate 5 mM
[5] = tested on: E. coli O157:H7 strain NCTC 12900; type: cell-based, Escherichia coli O157:H7; details: for effect on viability of single compounds (FIG. 6A-C): L-lactate 50 mM or coumarin 7.5 mM alone; for dose dependence of inactivation (FIG. 1): L-lactate 50-200 mM, D-lactate 100-200 mM; for effect on viability of single compounds (FIG. 7A): citrate 50 mM or esculetin 7.5 mM alone
[6] = tested on: L. monocytogenes; test: Growth inhibition monitored by spectrophotometer (650 nm); type: cell-based, Listeria monocytogenes; details: 1.25 mM Coumarin; L-lactate concentration not given
[7] = tested on: 8 E. coli O157:H7 strains and 8 non-O157:H7 E. coli strains; type: cell-based
[8] = tested on: Salmonella enteritidis NCTC 4444; test: Viability (killing) of S. enteritidis treated with L-lactate and Coumarin; type: cell-based
[9] = tested on: S. enteritidis; test: Growth inhibition monitored by spectrophotometer (650 nm); type: cell-based, Salmonella enteritidis; details: Coumarin 2 mM; L-lactate concentration not given

L-lactate
reduction in viability (FIG. 8C) ([1]; L-lactate 50 mM, Coumarin 10 mM, 8 hours, pH 3.8): greater than 3 log10 units
reduction in viability (FIG. 11D) ([1]; L-lactate 2%, Coumarin 6.8 mM, 60 minutes): approximately 2 log10 units
growth compared to the control (FIG. 13B) [2]: inhibited substantially
growth compared to the control (FIG. 13A) [2]: caused a small reduction in the growth
reduction in viability (FIG. 8B) ([3]; L-lactate 50 mM alone, 8 hours, pH 3.8): greater than 5 log10 units
growth (FIG. 13E) [4]: inhibited
antimicrobial effect, L-lactate versus D-lactate (FIG. 2) ([5]; 100 mM each, pH 3.8, 37° C.): exerted a greater antimicrobial effect than 100 mM D-lactate
effect on viability of single compounds (FIG. 6A-C) ([5]; 37° C., pH 3.8): neither L-lactate (50 mM) nor scopoletin (7.5 mM) on their own affected the viability
decrease in viability (FIG. 11A) ([5]; L-lactate 2%, Coumarin 6.8 mM, 10 minutes): approximately 3 log10 units
effectiveness at reducing numbers, L-lactate versus D-lactate (FIG. 1) ([5]; L-lactate 50, 100, 150 or 200 mM, D-lactate 100, 150 or 200 mM, pH 3.8, 37° C.): more effective at reducing numbers of the E. coli O157:H7 strain NCTC 12900 than D-lactate at all concentrations measured
dose dependence of inactivation (FIG. 1) ([5]; pH 3.8, 37° C.): dose-dependent
growth (FIG. 13D) [6]: inhibited growth slightly
inactivation (percentage survival), L-lactate versus D-lactate (FIG. 3) ([7]; pH 3.8): much greater than that of D-lactate for all the E. coli strains tested

COc1cc2ccc(=O)oc2cc1O [scopoletin]
effect on viability of single compounds (FIG. 6A-C) ([5]; 37° C., pH 3.8): neither L-lactate (50 mM) nor scopoletin (7.5 mM) on their own affected the viability

O=c1ccc2ccccc2o1 [Coumarin, 1,2 benzopyrone]
effect on viability (FIG. 11D) ([1]; Coumarin 6.8 mM alone): had no effect on the viability
growth compared to the control (FIG. 13B) [2]: only slightly reduced the extent of growth
effect on viability (FIG. 11C) ([3]; Coumarin 6.8 mM alone): had no effect on the viability
effect on viability (FIG. 8B) ([3]; Coumarin 10 mM alone, pH 3.8): had no effect on viability
growth (FIG. 13E) [4]: inhibited
effect on viability (FIG. 11B) ([8]; Coumarin 6.8 mM alone): had no effect on the viability
effect on viability (FIG. 8A) ([8]; Coumarin 10 mM alone, pH 3.8): did not affect the viability
growth (FIG. 13C) [9]: inhibited the growth of S. enteritidis slightly
effect on viability (FIG. 11A) ([5]; Coumarin 6.8 mM alone): had no effect on the viability
effect on viability of single compounds (FIG. 6A-C) ([5]; 37° C., pH 3.8): neither 7.5 mM Coumarin (FIG. 6B) nor 7.5 mM umbelliferone (FIG. 6C) affected viability
growth (FIG. 13D) [6]: did not affect the growth of L. monocytogenes
survival (FIG. 10) [7]: had little effect on the survival

O=C(O)CC(O)(CC(=O)O)C(=O)O [citrate]
effect on viability of single compounds (FIG. 7A) ([5]; pH 3.8): neither citrate (50 mM) nor esculetin (7.5 mM) when used individually affected the viability

O=c1ccc2ccc(O)cc2o1 [umbelliferone]
effect on viability of single compounds (FIG. 6A-C) ([5]; 37° C., pH 3.8): neither 7.5 mM Coumarin (FIG. 6B) nor 7.5 mM umbelliferone (FIG. 6C) affected viability

O=C(O)c1ccccc1 [benzoate]
reduction in numbers / viability (FIG. 7A, 7B) ([5]; citrate 50 mM, benzoate 25 mM, esculetin 7.5 mM, 8 hours, pH 3.8): approximately 4 log10 units

C[C@@H](O)C(=O)O [D-lactate, reference compound]
dose dependence of inactivation (FIG. 1) ([5]; pH 3.8, 37° C.): dose-dependent

O=c1ccc2cc(O)c(O)cc2o1 [esculetin]
growth compared to the control (FIG. 13A) [2]: caused a small reduction in the growth
effect on viability of single compounds (FIG. 7A) ([5]; pH 3.8): neither citrate (50 mM) nor esculetin (7.5 mM) when used individually affected the viability
